Source: patent US9174993B2, “N-[4-(1H-pyrazolo[3,4-b]pyrazin-6-yl)-phenyl]-sulfonamides and their use as pharmaceuticals” (SANOFI, priority 2011, dated 2015)

Assays:
[1] = biological target: recombinant human SGK-1 enzyme (Homo sapiens, UniProt O00141); experiment: SGK-1 enzymatic activity assay (substrate phosphorylation, fluorescein-labeled peptide, lab-chip); format: biochemical; conditions: ATP 10 μM, peptide substrate 1 μM, 60 min at 37° C., read-out: IC50 for inhibition of SGK-1 enzymatic activity
recombinant human SGK-1 enzyme, sequence (O00141 whole entry, looked up): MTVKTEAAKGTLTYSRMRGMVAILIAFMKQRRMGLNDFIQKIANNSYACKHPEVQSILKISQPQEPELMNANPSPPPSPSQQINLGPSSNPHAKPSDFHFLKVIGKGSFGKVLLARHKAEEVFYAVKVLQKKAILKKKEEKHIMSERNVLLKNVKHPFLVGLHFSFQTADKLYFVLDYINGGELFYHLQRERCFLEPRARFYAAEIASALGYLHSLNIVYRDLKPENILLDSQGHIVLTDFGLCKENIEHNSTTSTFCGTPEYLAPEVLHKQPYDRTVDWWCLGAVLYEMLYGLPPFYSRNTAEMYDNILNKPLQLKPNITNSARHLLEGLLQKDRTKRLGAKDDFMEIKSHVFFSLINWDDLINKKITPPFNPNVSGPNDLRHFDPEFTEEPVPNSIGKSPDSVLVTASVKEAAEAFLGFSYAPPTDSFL
Description: The synthesized fluorescent labeled peptide substrate contained (5(6)-Carboxyfluorescein)-RPRAATF-NH2. The phosphorylated substrate peptide and non-phosphorylated substrate peptide were separated with caliper life science's lab-chip technology based on a micro fluidics method. All fluid flow was established on the chip by applying a vacuum of a few psi to the waste well transporting fluid from various sources through interconnecting channels. Because the phosphoryl group is doubly negatively charged, under the pressure-driven hydrodynamic flow and the voltage-driven flow within the electric field, the fluorescent labeled peptide substrate and its phosphorylation product appear at different times in the detection window to the detection point. Substrate turnover can thus be determined as the ratio of the product peak area and the sum of substrate peak area and product peak area.
The enzyme reaction was carried out in a buffer containing 25 mM Tris-HCl (pH 7.4), 5 mM MgCl2, 2 mM MnCl2, 2 mM DTT, and 0.03% bovine serum albumine. The enzyme was pre-incubated with the test compound for 30 min at 24° C. The kinase reaction was initiated by addition of the substrate mixture containing the peptide substrate (final concentration 1 μM) and ATP (final concentration 10 μM). After 60 min incubation at 37° C., the enzyme reaction was terminated by adding a buffer containing 100 mM Hepes (pH 7.4) and 35 mM EDTA.
For the determination of the compound dose response, a 10 mM DMSO stock solution was diluted and tested in a ten-point, three-fold dilution series run in duplicate beginning at 30 μM final concentration. Data were analyzed using a four-parameter curve fit with a fixed minimum and maximum experimentally defined as the average positive and negative controls on each plate.

[2] = test system: collagen type X (Col10a1) expression in ATDC5 cells; experiment: Chondrocyte hypertrophic differentiation in mouse chondrogenic ATDC5 cells (collagen type X expression); format: cell-based; conditions: 336 h, 14 days differentiation with BMP2 and T3, Col10a1 by quantitative real-time PCR, read-out: IC50 for the inhibition of collagen type X expression
Description: The ATDC5 cell assay was used as in vitro model to determine the effects of the compounds of the invention on chondrocyte hypertrophic differentiation by monitoring the expression levels of collagen type X (Col10a1) as specific marker of chondrocyte hypertrophy.
Background: ATDC5 cells are a clonal mouse embryonic cell line derived from multipotent AT805 teratocarcinoma cells (Atsumi T, Miwa Y, Kimata K, Ikawa Y.; A chondrogenic cell line derived from a differentiating culture of AT805 teratocarcinoma cells. Cell Differ. Dev. 30 (1990), 109-116). […] Chondrogenic differentiation can be shown by measuring the expression of the cartilage main collagen (Col2a1) and aggrecan (AGC1) and glycosaminoglycan-staining with Alcian Blue within two weeks after insulin-triggered differentiation, and hypertrophic differentiation can be monitored by the expression of collagen type X (Col10a1), a specific marker of chondrocyte hypertrophy within 21 days of in vitro culture. […] SGK-inhibitors were added to differentiating ATDC5 cells for 14 days and Col10a1 gene expression was quantified to determine effects on chondrocyte hypertrophic differentiation. […]
After two weeks of cell culture, RNA was isolated and converted to cDNA for determination of gene expression by quantitative real-time PCR. […] RNA was isolated in 30 μl of pure water and the RNA content measured by UV-spectroscopy (Nanodrop, Peqlab). […]

[3] = test system: SGK-1 dependent activation of ENaC-currents in A6 cell monolayers; experiment: Functional electrophysiological assay, SGK-1 dependent activation of ENaC currents in A6 cell monolayers (Ussing chamber); format: cell-based; conditions: Xenopus laevis, 0.75 h, hypoosmotic shock 45 min, read-out: IC50 for inhibition of ΔI'sc (amiloride-sensitive ENaC-dependent short circuit current)
Procedure: Materials and methods for Ussing chamber measurement of A6 cells: The renal Xenopus laevis cell line A6 (Rafferty, K. A.; Mass culture of amphibia cells: methods and observations concerning stability of cell type. In: Biology of Amphibian Tumors, edited by M. Mizell. New York: Springer-Verlag, 1969, p. 52-81) was used for the experiments. Cells were grown in cell culture flasks (Nunc) at 28° C. in a humidified atmosphere with 4% CO2. The culture medium contained a 7:3 mixture of Leibovitz's L-15 (Sigma-Aldrich)/Coon's (Sigma-Aldrich) media supplemented with 10% fetal bovine serum (PAA), 20% sterile water, 25 mM NaHCO3 (Sigma-Aldrich), 100 U/ml penicillin (PAA) and 100 μg/ml streptomycin (PAA). The osmolality of the medium was 270 mOsml/kg H2O). […] Filters with confluent A6 cells were transferred into a continuously perfused Ussing-chamber, and electrophysiological parameters were measured under open circuit conditions using a transepithelial clamp amplifier (EP Design). Short circuit current (I′sc) was calculated by Ohm's law. […]
To evaluate the effects of SGK inhibitors on ENaC-mediated transepithelial currents, […] monolayers were first equilibrated for 5 min with isoosmotic Ringer-solution from both the luminal and basolateral side of the cell layer. […] ENaC-dependent I′sc after the hypoosmotic shock (I′schypo) was determined by application of amiloride at the end of the experiment. […]

SMILES	IC50 [1] [nM]	further results
Nc1n[nH]c2nc(-c3ccc(NS(=O)(=O)c4cc(F)cc(F)c4Cl)cc3)cnc12 [Example 60, N-[4-(3-Amino-1H-pyrazolo[3,4-b]pyrazin-6-yl)-phenyl]-2-chloro-3,5-difluoro-benzenesulfonamide]	31	–
Nc1n[nH]c2nc(-c3ccc(NS(=O)(=O)c4cc(Cl)ccc4F)c(F)c3)cnc12 [Example 6, N-[4-(3-Amino-1H-pyrazolo[3,4-b]pyrazin-6-yl)-2-fluoro-phenyl]-5-chloro-2-fluoro-benzenesulfonamide]	–	IC50 [2]: 559 nM
Cc1nn(C)c(Cl)c1S(=O)(=O)Nc1ccc(-c2cnc3c(NS(=O)(=O)c4c(C)nn(C)c4Cl)n[nH]c3n2)cc1 [Example 43, 5-Chloro-N-[4-[3-[(5-chloro-1,3-dimethyl-pyrazol-4-yl)sulfonylamino]-1H-pyrazolo[3,4-b]pyrazin-6-yl]phenyl]-1,3-dimethyl-pyrazole-4-sulfonamide]	1050	–
Nc1n[nH]c2nc(-c3ccc(NS(=O)(=O)c4ccc(F)cc4Cl)cc3)cnc12 [Example 61, N-[4-(3-Amino-1H-pyrazolo[3,4-b]pyrazin-6-yl)-phenyl]-2-chloro-4-fluoro-benzenesulfonamide]	18	–
O=S(=O)(Nc1ccc(-c2cnc3c(NS(=O)(=O)c4cc(Cl)c(F)cc4F)n[nH]c3n2)cc1)c1cc(Cl)c(F)cc1F [Example 42, 5-Chloro-N-[4-[3-[(5-chloro-2,4-difluoro-phenyl)sulfonylamino]-1H-pyrazolo[3,4-b]pyrazin-6-yl]phenyl]-2,4-difluoro-benzenesulfonamide]	413	–
Nc1n[nH]c2nc(-c3ccc(NS(=O)(=O)c4cccc(Cl)c4Cl)cc3)cnc12 [Example 1, N-[4-(3-Amino-1H-pyrazolo[3,4-b]pyrazin-6-yl)phenyl]-2,3-dichloro-benzenesulfonamide]	–	IC50 [3]: 2100 nM
N#Cc1ccc(F)c(S(=O)(=O)Nc2ccc(-c3cnc4c(N)n[nH]c4n3)cc2)c1 [Example 45, N-[4-(3-Amino-1H-pyrazolo[3,4-b]pyrazin-6-yl)-phenyl]-5-cyano-2-fluoro-benzenesulfonamide]	47	–
